Results published in ChEMBL document CHEMBL1201862, “PubChem BioAssay data set” (2004).
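Five compound concentrations were applied to cells in 96-well plates for 48 hours; endpoints were derived by simple linear interpolation of the resulting dose-response curve. GI50 = concentration required for 50% inhibition of growth.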 Active and inactive are the calls of the source. Rule as the data show it: active = GI50 up to about 1.1 µM and inactive = higher.

How the values were obtained:
Assay in all cases: NCI-60 cell line screen, 48 h
MDA-MB-435 = test system: MDA-MB-435
SF-295 = test system: SF-295
NCI-H522 = test system: NCI-H522
MCF7 = test system: MCF7
HCT-116 = test system: HCT-116
MDA-N = test system: MDA-N
A549 = test system: A549
NCI-H460 = test system: NCI-H460
NCI-H226 = test system: NCI-H226
HT-29 = test system: HT-29
OVCAR-4 = test system: OVCAR-4
M14 = test system: M14
SW-620 = test system: SW-620
SF-539 = test system: SF-539
BT-549 = test system: BT-549
MDA-MB-231 = test system: MDA-MB-231
DU-145 = test system: DU-145
Malme-3M = test system: Malme-3M
CAKI-1 = test system: CAKI-1
MOLT-4 = test system: MOLT-4
UACC-257 = test system: UACC-257
RPMI-8226 = test system: RPMI-8226
COLO 205 = test system: COLO 205
UO-31 = test system: UO-31
OVCAR-8 = test system: OVCAR-8
NCI-H23 = test system: NCI-H23
SK-MEL-2 = test system: SK-MEL-2
SK-MEL-28 = test system: SK-MEL-28
HOP-92 = test system: HOP-92
SNB-75 = test system: SNB-75
TK-10 = test system: TK-10
IGROV-1 = test system: IGROV-1
786-0 = test system: 786-0
U-251 = test system: U-251
HCC 2998 = test system: HCC 2998
SF-268 = test system: SF-268
SK-MEL-5 = test system: SK-MEL-5
LOX IMVI = test system: LOX IMVI
CCRF-CEM = test system: CCRF-CEM
OVCAR-3 = test system: OVCAR-3
K562 = test system: K562
HCT-15 = test system: HCT-15
EKVX = test system: EKVX
SK-OV-3 = test system: SK-OV-3
OVCAR-5 = test system: OVCAR-5
SNB-19 = test system: SNB-19
ACHN = test system: ACHN
PC-3 = test system: PC-3
SN12C = test system: SN12C
HOP-62 = test system: HOP-62
NCI/ADR-RES = test system: NCI/ADR-RES
A498 = test system: A498
UACC-62 = test system: UACC-62
KM12 = test system: KM12
Hs-578T = test system: Hs-578T
RXF 393 = test system: RXF 393
SR = test system: SR
HL-60 = test system: HL-60

For `NC(=O)CCC(NC(=O)c1c2ccccc2nc2ccccc12)C(=O)O` (stereo unspecified), the GI50 (MDA-MB-435) was > 100 µM (inactive), the GI50 (SF-295) was > 100 µM (inactive) and the GI50 (NCI-H522) was > 100 µM (inactive). The GI50 (MCF7) was > 100 µM (inactive), the GI50 (HCT-116) was > 100 µM (inactive) and the GI50 (MDA-N) was > 100 µM (inactive). For the same compound, the GI50 (A549) was > 100 µM (inactive), the GI50 (NCI-H460) was > 100 µM (inactive) and the GI50 (NCI-H226) was > 100 µM (inactive). The GI50 (HT-29) was > 100 µM (inactive), the GI50 (OVCAR-4) was > 100 µM (inactive) and the GI50 (M14) was > 100 µM (inactive). For the same compound, the GI50 (SW-620) was > 100 µM (inactive), the GI50 (SF-539) was > 100 µM (inactive) and the GI50 (BT-549) was > 100 µM (inactive). For the same compound, the GI50 (MDA-MB-231) was > 100 µM (inactive), the GI50 (DU-145) was > 100 µM (inactive) and the GI50 (Malme-3M) was > 100 µM (inactive). The GI50 (CAKI-1) was > 100 µM (inactive), the GI50 (MOLT-4) was > 100 µM (inactive) and the GI50 (UACC-257) was > 100 µM (inactive). For the same compound, the GI50 (RPMI-8226) was > 100 µM (inactive), the GI50 (COLO 205) was > 100 µM (inactive) and the GI50 (UO-31) was > 100 µM (inactive). For the same compound, the GI50 (OVCAR-8) was > 100 µM (inactive), the GI50 (NCI-H23) was > 100 µM (inactive) and the GI50 (SK-MEL-2) was > 100 µM (inactive). For the same compound, the GI50 (SK-MEL-28) was > 100 µM (inactive), the GI50 (HOP-92) was > 100 µM (inactive) and the GI50 (SNB-75) was > 100 µM (inactive). For the same compound, the GI50 (TK-10) was > 100 µM (inactive), the GI50 (IGROV-1) was > 100 µM (inactive) and the GI50 (786-0) was > 100 µM (inactive). For the same compound, the GI50 (U-251) was > 100 µM (inactive), the GI50 (HCC 2998) was > 100 µM (inactive) and the GI50 (SF-268) was > 100 µM (inactive). For the same compound, the GI50 (SK-MEL-5) was > 100 µM (inactive), the GI50 (LOX IMVI) was > 100 µM (inactive) and the GI50 (CCRF-CEM) was > 100 µM (inactive). For the same compound, the GI50 (OVCAR-3) was > 100 µM (inactive), the GI50 (K562) was > 100 µM (inactive) and the GI50 (HCT-15) was greater than 100 µM. For the same compound, the GI50 (EKVX) was > 100 µM (inactive), the GI50 (SK-OV-3) was > 100 µM (inactive) and the GI50 (OVCAR-5) was > 100 µM (inactive). For the same compound, the GI50 (SNB-19) was > 100 µM (inactive), the GI50 (ACHN) was > 100 µM (inactive) and the GI50 (PC-3) was > 100 µM (inactive). For the same compound, the GI50 (SN12C) was > 100 µM (inactive), the GI50 (HOP-62) was > 100 µM (inactive) and the GI50 (NCI/ADR-RES) was > 100 µM (inactive). For the same compound, the GI50 (A498) was > 100 µM (inactive), the GI50 (UACC-62) was > 100 µM (inactive) and the GI50 (KM12) was > 100 µM (inactive).
For `CC1(C)N=C(N)N=C(N)N1c1cccc(OCCOc2ccc([N+](=O)[O-])cc2)c1`, the GI50 (MDA-MB-435) was 5.04 µM (inactive), the GI50 (SF-295) was > 100 µM (inactive) and the GI50 (NCI-H522) was 3.79 µM (inactive). For the same compound, the GI50 (MCF7) was 16 µM (inactive), the GI50 (HCT-116) was 4.81 µM (inactive) and the GI50 (MDA-N) was 5.26 µM (inactive). The GI50 (A549) was 4.48 µM (inactive), the GI50 (Hs-578T) was > 100 µM (inactive) and the GI50 (NCI-H460) was 7.53 µM (inactive). The GI50 (HT-29) was 8.24 µM (inactive), the GI50 (OVCAR-4) was 63.5 µM (inactive) and the GI50 (M14) was 34.8 µM (inactive). For the same compound, the GI50 (SW-620) was 3.68 µM (inactive), the GI50 (SF-539) was 15.2 µM (inactive) and the GI50 (BT-549) was 12.9 µM (inactive). For the same compound, the GI50 (RXF 393) was 21.8 µM (inactive), the GI50 (MDA-MB-231) was > 100 µM (inactive) and the GI50 (DU-145) was 20.1 µM (inactive). For the same compound, the GI50 (Malme-3M) was 20.6 µM (inactive), the GI50 (CAKI-1) was > 100 µM (inactive) and the GI50 (MOLT-4) was > 100 µM (inactive). For the same compound, the GI50 (UACC-257) was 57.7 µM (inactive), the GI50 (RPMI-8226) was 16.5 µM (inactive) and the GI50 (COLO 205) was 37.4 µM (inactive). For the same compound, the GI50 (OVCAR-8) was 74.6 µM (inactive), the GI50 (NCI-H23) was 4.9 µM (inactive) and the GI50 (SK-MEL-2) was 8.26 µM (inactive). The GI50 (SK-MEL-28) was 53.3 µM (inactive), the GI50 (HOP-92) was > 100 µM (inactive) and the GI50 (TK-10) was > 100 µM (inactive). The GI50 (IGROV-1) was 1.96 µM (inactive), the GI50 (786-0) was 4.99 µM (inactive) and the GI50 (U-251) was 7.33 µM (inactive). The GI50 (SF-268) was 5.04 µM (inactive), the GI50 (SK-MEL-5) was 69.5 µM (inactive) and the GI50 (LOX IMVI) was 8.97 µM (inactive). For the same compound, the GI50 (SR) was 0.238 µM (active), the GI50 (CCRF-CEM) was 7.76 µM (inactive) and the GI50 (HL-60) was 66.8 µM (inactive). For the same compound, the GI50 (OVCAR-3) was 41.6 µM (inactive), the GI50 (K562) was 41.9 µM (inactive) and the GI50 (HCT-15) was greater than 100 µM. The GI50 (EKVX) was > 100 µM (inactive), the GI50 (SK-OV-3) was > 100 µM (inactive) and the GI50 (OVCAR-5) was > 100 µM (inactive). For the same compound, the GI50 (SNB-19) was 37.8 µM (inactive), the GI50 (ACHN) was > 100 µM (inactive) and the GI50 (PC-3) was 0.822 µM (active). For the same compound, the GI50 (SN12C) was 6.49 µM (inactive), the GI50 (HOP-62) was > 100 µM (inactive) and the GI50 (A498) was > 100 µM (inactive). For the same compound, the GI50 (KM12) was 11.5 µM (inactive).
